Data set [1] in a line: Metabolic stability in mouse liver microsomes. Type of data set: in vitro ADME. As to conditions: mouse liver microsomes 1.0 mg/mL, compound 1 μM, NADPH, second number of HLM/MLM cell. The text has this:
(§1) Metabolic Stability in Liver Microsomes
(§2) The purpose of this experiment is to measure the metabolic half-life of NCEs in sub-cellular fractions such as human liver microsomes (HLM) or mouse liver microsomes (MLM). This provides an in vitro means to calculate intrinsic hepatic clearance, and to support the prediction of human pharmacokinetics. This approach has been successfully utilized at early phase of drug discovery projects, to provide SAR input for reducing metabolic instability and for predicting in vivo hepatic clearance.
(§3) Procedure: Potassium phosphate buffer (66.7 mM, pH 7.4) containing liver microsomes (mouse and human) (1.0 mg/mL) was pre-incubated separately with compound (1 μM) and positive control (verapamil, 1 μM) in a 37° C. water bath for 5 min. The reactions were initiated by adding 20 μL of 10 mM NADPH. Reactions without NADPH (0 and 30 min) were also incubated to rule out non-NADPH metabolism or chemical instability in the incubation buffer. All reactions were terminated using 200 μL of ice-cold acetonitrile containing internal standard at 0, 5, 15 and 30 min. The vials were centrifuged at 3000 rpm for 15 min. The supernatants thus obtained were analyzed on LC-MS/MS to monitor the disappearance of test compound.

The target in data set [2] is T1, PD-1/PD-L1 interaction (Homo sapiens, UniProt Q9NZQ7).
T1 construct: purchased CisBio 63ADK000CPAPEG
The experiment in a line: PD-1/PD-L1 HTRF binding assay (CisBio kit). As to conditions: HTRF PD1/PD-L1 inhibition assay. Put shortly:
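HTRF kit assay: compound was preincubated 15 min with tagged PD-L1 and PD-1 proteins, then Eu-cryptate and XL665 anti-tag antibodies were added for 1 h at room temperature. Readout was the 665/620 nm ratio ×10^4. IC50 was binned as A <100 nM, B 100–500 nM, C >500 nM.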

A short description of data set [3]: Metabolic stability in human liver microsomes. It is filed as in vitro ADME. As to conditions: human liver microsomes 1.0 mg/mL, compound 1 μM, NADPH, first number of HLM/MLM cell.
Excerpt: as §1, §2, §3

Structures are written as SMILES. pIC50: −log10 of the molar value. Where a name gives a salt, the structure may show the parent alone.

T1 sequence (Q9NZQ7 19-238 limits assumed): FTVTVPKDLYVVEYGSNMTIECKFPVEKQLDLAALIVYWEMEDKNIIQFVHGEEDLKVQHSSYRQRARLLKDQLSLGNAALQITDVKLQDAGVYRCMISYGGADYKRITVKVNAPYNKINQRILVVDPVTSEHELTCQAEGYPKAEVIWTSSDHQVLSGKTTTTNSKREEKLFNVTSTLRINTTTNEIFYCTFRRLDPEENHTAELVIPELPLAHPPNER

On to `Cc1c(COc2cc(OCc3cncc(C(N)=O)c3)c(CN3CCCC[C@H]3CO)c3c2CCC3)cccc1-c1ccccc1` [Example 37, (S)-5-(((4-((2-(hydroxymethyl)piperidin-1-yl)methyl)-7-((2-methyl-[1,1′-biphenyl]-3-yl)methoxy)-2,3-dihydro-1H-inden-5-yl)oxy)methyl)nicotinamide], for which, in data set [1], the “MLM % remaining @ 30 min” value stood at 88%. Moreover, the pIC50 (usually the negative decadic logarithm of the IC50, by convention in mol/L) in data set [2] is greater than 7.00. Moreover, the “HLM % remaining @ 30 min” value in data set [3] stood at 86%.
For the molecule `N#Cc1c(COc2cc(OCCF)c(CN3CCCC[C@H]3CO)c3c2CCC3)cccc1-c1ccccc1` [Example 29, (S)-3-(((6-(2-fluoroethoxy)-7-((2-(hydroxymethyl)piperidin-1-yl)methyl)-2,3-dihydro-1H-inden-4-yl)oxy)methyl)-[1,1′-biphenyl]-2-carbonitrile], the “MLM % remaining @ 30 min” value in data set [1] is recorded as 71%. Also, the negative-log IC50 (pIC50) in data set [2] was greater than 7.00. For the same molecule, in data set [3], the “HLM % remaining @ 30 min” value is 56%.
As for `Cc1c(COc2cc(OCCCCCF)c(CN3CCCC[C@H]3CO)c3c2CCC3)cccc1-c1ccccc1` [Example 30, (S)-(1-((5-((5-fluoropentyl)oxy)-7-((2-methyl-[1,1′-biphenyl]-3-yl)methoxy)-2,3-dihydro-1H-inden-4-yl)methyl)piperidin-2-yl)methanol], the “MLM % remaining @ 30 min” value in data set [1] stood at 74%. Further, the pIC50 in data set [2] was greater than 7.00. Moreover, in data set [3], the “HLM % remaining @ 30 min” value was found to be 57%.
Regarding `Cc1c(COc2cc(OCc3cncc(C#N)c3)c(CN3CCC[C@H]3CO)c3c2CCC3)cccc1-c1ccccc1` [Example 8, (S)-5-(((4-((2-(hydroxymethyl)pyrrolidin-1-yl)methyl)-7-((2-methyl-[1,1′-biphenyl]-3-yl)methoxy)-2,3-dihydro-1H-inden-5-yl)oxy)methyl)nicotinonitrile], the “MLM % remaining @ 30 min” value in data set [1] is 85%. In data set [2], the pIC50 is greater than 7.00. Further, the “HLM % remaining @ 30 min” value in data set [3] was determined as 61%.
For `N#Cc1c(COc2cc(OCC(F)(F)F)c(CN3CCCC[C@H]3CO)c3c2CCC3)cccc1-c1ccccc1` [Example 23, (S)-3-(((7-((2-(hydroxymethyl)piperidin-1-yl)methyl)-6-(2,2,2-trifluoroethoxy)-2,3-dihydro-1H-inden-4-yl)oxy)methyl)-[1,1′-biphenyl]-2-carbonitrile], the “MLM % remaining @ 30 min” value in data set [1] stood at 25%. Also, the pIC50 in data set [2] was greater than 7.00. In data set [3], the “HLM % remaining @ 30 min” value is on record as 27%.
The corresponding values for `Cc1c(COc2cc(OCc3cccc(C#N)c3)c(CN3CCCC[C@H]3CO)c3c2CCC3)cccc1-c1ccccc1` [Example 2, (S)-3-(((4-((2-(hydroxymethyl)piperidin-1-yl)methyl)-7-((2-methyl-[1,1′-biphenyl]-3-yl)methoxy)-2,3-dihydro-1H-inden-5-yl)oxy)methyl)benzonitrile] are 62%, greater than 7.00 and 58%.
With `Cc1c(COc2cc(OCCF)c(CN3CCC[C@H]3CO)c3c2CCC3)cccc1-c1ccccc1` [Example 28, (S)-(1-((5-(2-fluoroethoxy)-7-((2-methyl-[1,1′-biphenyl]-3-yl)methoxy)-2,3-dihydro-1H-inden-4-yl)methyl)pyrrolidin-2-yl)methanol], in data set [1], the “MLM % remaining @ 30 min” value stood at 82%. The pIC50 in data set [2] was greater than 7.00. Besides, the “HLM % remaining @ 30 min” value in data set [3] was 74%.
For `Cc1c(COc2cc(OCc3cccc(C#N)c3)c(CN3CCC[C@H]3CO)c3c2CCC3)cccc1-c1ccccc1` [Example 7, (S)-3-(((4-((2-(hydroxymethyl)pyrrolidin-1-yl)methyl)-7-((2-methyl-[1,1′-biphenyl]-3-yl)methoxy)-2,3-dihydro-1H-inden-5-yl)oxy)methyl)benzonitrile], in that order: 76%, greater than 7.00 and 66%.
Consider `Cc1c(COc2cc(OCc3cncc(C#N)c3)c(CN3C[C@H](O)C[C@H]3CO)c3c2CCC3)cccc1-c1ccccc1` [Example 6], for which, in data set [1], the “MLM % remaining @ 30 min” value is on record as 87%. In data set [2], the pIC50 is greater than 7.00. The “HLM % remaining @ 30 min” value in data set [3] worked out at 67%.
For the molecule `Cc1c(COc2cc(OCc3cccc(C#N)c3)c(CN3CCCC4CC43CO)c3c2CCC3)cccc1-c1ccccc1` (stereo not shown) [Example 34, 3-(((4-((1-(hydroxymethyl)-2-azabicyclo[4.1.0]heptan-2-yl)methyl)-7-((2-methyl-[1,1′-biphenyl]-3-yl)methoxy)-2,3-dihydro-1H-inden-5-yl)oxy)methyl)benzonitrile], in data set [1], the “MLM % remaining @ 30 min” value is 5%. In addition, in data set [2], the pIC50 is greater than 7.00. The “HLM % remaining @ 30 min” value in data set [3] is given as 8%.
Turning to `Cc1c(COc2cc(OCc3cccc(C(N)=O)c3)c(CN3CCC[C@H]3CO)c3c2CCC3)cccc1-c1ccccc1` [Example 38, (S)-3-(((4-((2-(hydroxymethyl)pyrrolidin-1-yl)methyl)-7-((2-methyl-[1,1′-biphenyl]-3-yl)methoxy)-2,3-dihydro-1H-inden-5-yl)oxy)methyl)benzamide], the “MLM % remaining @ 30 min” value in data set [1] was found to be 84%. The same molecule had a pIC50 in data set [2] greater than 7.00. Further, the “HLM % remaining @ 30 min” value in data set [3] worked out at 78%.
On to `Cc1c(COc2cc(OCc3cncc(C#N)c3)c(CN3CCOC[C@H]3CO)c3c2CCC3)cccc1-c1ccccc1` [Example 9, (R)-5-(((4-((3-(hydroxymethyl)morpholino)methyl)-7-((2-methyl-[1,1′-biphenyl]-3-yl)methoxy)-2,3-dihydro-1H-inden-5-yl)oxy)methyl)nicotinonitrile], for which the “MLM % remaining @ 30 min” value in data set [1] was found to be 21%. In addition, the pIC50 in data set [2] is greater than 7.00. Besides, the “HLM % remaining @ 30 min” value in data set [3] is 8%.
`Cc1c(COc2cc(OCCCF)c(CN3CCCC[C@H]3CO)c3c2CCC3)cccc1-c1ccccc1` [Example 32, (S)-(1-((5-(3-fluoropropoxy)-7-((2-methyl-[1,1′-biphenyl]-3-yl)methoxy)-2,3-dihydro-1H-inden-4-yl)methyl)piperidin-2-yl)methanol]: in data set [1], the “MLM % remaining @ 30 min” value worked out at 84%. Also, the pIC50 in data set [2] was greater than 7.00. The “HLM % remaining @ 30 min” value in data set [3] was found to be 81%.
Take `Cc1c(COc2cc(OCc3cc(C#N)c[n+]([O-])c3)c(CN3CCC[C@H]3CO)c3c2CCC3)cccc1-c1ccccc1` [Example 44, (S)-3-cyano-5-(((4-((2-(hydroxymethyl)pyrrolidin-1-yl)methyl)-7-((2-methyl-[1,1′-biphenyl]-3-yl)methoxy)-2,3-dihydro-1H-inden-5-yl)oxy)methyl)pyridine 1-oxide]: in data set [1], the “MLM % remaining @ 30 min” value was determined as 15%. Also, the pIC50 in data set [2] is greater than 7.00. Moreover, the “HLM % remaining @ 30 min” value in data set [3] is given as 33%.
As to `Cc1c(COc2cc(OCC(F)(F)F)c(CN3CCCC[C@H]3CO)c3c2CCC3)cccc1-c1ccccc1` [Example 24, (S)-(1-((7-((2-methyl-[1,1′-biphenyl]-3-yl)methoxy)-5-(2,2,2-trifluoroethoxy)-2,3-dihydro-1H-inden-4-yl)methyl)piperidin-2-yl)methanol], the “MLM % remaining @ 30 min” value in data set [1] is 67%. Moreover, the negative-log IC50 (pIC50) in data set [2] is greater than 7.00. In addition, in data set [3], the “HLM % remaining @ 30 min” value is given as 72%.
On to `N#Cc1cncc(COc2cc(OCc3cccc(-c4ccccc4)c3C#N)c3c(c2CN2CCC[C@H]2CO)CCC3)c1` [Example 3, (S)-5-(((7-((2-cyano-[1,1′-biphenyl]-3-yl)methoxy)-4-((2-(hydroxymethyl)pyrrolidin-1-yl)methyl)-2,3-dihydro-1H-inden-5-yl)oxy)methyl)nicotinonitrile], for which the “MLM % remaining @ 30 min” value in data set [1] was found to be 14%. This molecule also had a pIC50 in data set [2] greater than 7.00. Besides, the “HLM % remaining @ 30 min” value in data set [3] stood at 22%.
`Cc1c(COc2cc(OCc3cncc(C#N)c3)c(CN3CC[C@H](CO)C3)c3c2CCC3)cccc1-c1ccccc1` [Example 18, (S)-5-(((4-((3-(hydroxymethyl)pyrrolidin-1-yl)methyl)-7-((2-methyl-[1,1′-biphenyl]-3-yl)methoxy)-2,3-dihydro-1H-inden-5-yl)oxy)methyl)nicotinonitrile] gave a negative-log IC50 (pIC50) in data set [2] greater than 7.00.
Regarding `CNC(=O)NCC1CCCN1Cc1c(OCc2cncc(C#N)c2)cc(OCc2cccc(-c3ccccc3)c2C)c2c1CCC2` (stereo not shown) [Example 80, 1-((1-((5-((5-cyanopyridin-3-yl)methoxy)-7-((2-methyl-[1,1′-biphenyl]-3-yl)methoxy)-2,3-dihydro-1H-inden-4-yl)methyl)pyrrolidin-2-yl)methyl)-3-methylurea formate], the pIC50 in data set [2] is greater than 7.00.
For `Cc1c(COc2cc(OCc3cscn3)c(CN3CCC3CO)c3c2CCC3)cccc1-c1ccccc1` (stereo not shown) [Example 40, (1-((7-((2-methyl-[1,1′-biphenyl]-3-yl)methoxy)-5-(thiazol-4-ylmethoxy)-2,3-dihydro-1H-inden-4-yl)methyl)azetidin-2-yl)methanol], the pIC50 in data set [2] was 6.30 to 7.00.
Consider `N#Cc1cccc(COc2cc(OCc3cccc(-c4ccccc4)c3C#N)c3c(c2CN2CCCC4CC42CO)CCC3)c1` (stereo not shown) [Example 36, 3-(((6-((3-cyanobenzyl)oxy)-7-((1-(hydroxymethyl)-2-azabicyclo[4.1.0]heptan-2-yl)methyl)-2,3-dihydro-1H-inden-4-yl)oxy)methyl)-[1,1′-biphenyl]-2-carbonitrile], for which, in data set [2], the negative logarithm of the IC50 (pIC50) was 6.30 to 7.00.

The values are drawn from patent US20240246931A1, “COMPOUNDS AS PD1/PD-L1 INHIBITORS AND METHODS THEREOF” (JUBILANT PRODEL LLC, priority 2021, published 2024).
